Experimental findings from patent publication US9931327B2, “Derivatives of 1-phenyl-2-pyridinyl alkyl alcohols as phosphodiesterase inhibitors” (Chiesi Farmaceutici S.p.A., priority 2011, dated 2018) are described below.

Structures can show the parent of a compound that is named as a salt. Bounds are passed on as bounds.

This assay relates to LPS-induced TNF-α release in peripheral blood mononuclear cells (PBMCs). Kind of assay: In vitro determination of PDE4 inhibitory activity in the PBMCs assay (LPS-induced TNF-α release). It is filed as cell-based, human. The settings on record: PBMC; human PBMCs, LPS 3 ng/ml, 18 hours, TNF-α by ELISA; read-out: PDE4 inhibition (IC50, 50% inhibition of LPS-induced TNF-α release). Summed up:
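Cryopreserved human PBMCs (10^5 cells/well) pre-incubated 30 min with compound (10^−12 to 10^−6 M or 10^−3 to 10^−7 M), then stimulated with LPS 3 ng/ml for 18 h at 37 °C. TNF-α in medium by ELISA; IC50 as mean ± 95% confidence limits.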

With `Cc1noc2ncc(S(=O)(=O)N3CCC[C@H]3C(=O)O[C@@H](Cc3c(Cl)c[n+]([O-])cc3Cl)c3ccc(OC(F)F)c(OCC4CC4)c3)cc12` [Compound 251, 3,5-dichloro-4-((S)-2-(3-(cyclopropylmethoxy)-4-(difluoromethoxy)phenyl)-2-((S)-1-(3-methylisoxazolo[5,4-b]pyridin-5-ylsulfonyl)pyrrolidine-2-carbonyloxy)ethyl)pyridine 1-oxide], the IC50 – broadly, the concentration that inhibits the measured activity by half – was below 0.1 nM.

Regarding `Cn1cnc(S(=O)(=O)N2CCS[C@H]2C(=O)O[C@@H](Cc2c(Cl)c[n+]([O-])cc2Cl)c2ccc(OC(F)F)c(OCC3CC3)c2)c1` [Compound 119, 3,5-dichloro-4-((S)-2-(3-(cyclopropylmethoxy)-4-(difluoromethoxy)phenyl)-2-((S)-3-(1-methyl-1H-imidazol-4-ylsulfonyl)thiazolidine-2-carbonyloxy)ethyl)pyridine 1-oxide], the IC50 was below 0.1 nM.

Take `CN(C)C(=O)c1cccc(S(=O)(=O)N2CCOC(C(=O)O[C@@H](Cc3c(Cl)c[n+]([O-])cc3Cl)c3ccc(OC(F)F)c(OCC4CC4)c3)C2)c1` (stereo partly drawn) [Compound 78, 3,5-dichloro-4-((2S)-2-(3-(cyclopropylmethoxy)-4-(difluoromethoxy)phenyl)-2-(4-(3-(dimethylcarbamoyl)phenylsulfonyl)morpholine-2-carbonyloxy)ethyl)pyridine 1-oxide]: the IC50 fell in the range of 0.1 to 1 nM.

Consider `Nc1ccc(S(=O)(=O)N2CCN(CC(=O)O[C@@H](Cc3c(Cl)c[n+]([O-])cc3Cl)c3ccc(OC(F)F)c(OCC4CC4)c3)CC2)cc1` [Compound 141, (S)-4-(2-(2-(4-(4-aminophenylsulfonyl)piperazin-1-yl)acetoxy)-2-(3-(cyclopropylmethoxy)-4-(difluoromethoxy)phenyl)ethyl)-3,5-dichloropyridine 1-oxide], for which the IC50 fell in the range of 0.1 to 1 nM.

Turning to `O=C(O[C@@H](Cc1c(Cl)c[n+]([O-])cc1Cl)c1ccc(OC(F)F)c(OCC2CC2)c1)[C@@H]1SCCN1S(=O)(=O)c1cccc(CO)c1` [Compound 271, 3,5-dichloro-4-((S)-2-(3-(cyclopropylmethoxy)-4-(difluoromethoxy)phenyl)-2-((S)-3-(3-(hydroxymethyl)phenylsulfonyl)thiazolidine-2-carbonyloxy)ethyl)pyridine 1-oxide], the IC50 is below 0.1 nM.

Take `Nc1ccc(S(=O)(=O)N2CCSC2C(=O)O[C@@H](Cc2c(Cl)c[n+]([O-])cc2Cl)c2ccc(OC(F)F)c(OCC3CC3)c2)cc1` (stereo partly drawn) [Compound 135, 4-((2S)-2-(3-(4-aminophenylsulfonyl)thiazolidine-2-carbonyloxy)-2-(3-(cyclopropylmethoxy)-4-(difluoromethoxy)phenyl)ethyl)-3,5-dichloropyridine 1-oxide]: the IC50 was 0.1 to 1 nM.

Consider `COC(=O)c1ccccc1S(=O)(=O)N1CCS[C@H]1C(=O)O[C@@H](Cc1c(Cl)c[n+]([O-])cc1Cl)c1ccc(OC(F)F)c(OCC2CC2)c1` [Compound 101, 3,5-dichloro-4-((S)-2-(3-(cyclopropylmethoxy)-4-(difluoromethoxy)phenyl)-2-((S)-3-(2-(methoxycarbonyl)phenylsulfonyl)thiazolidine-2-carbonyloxy)ethyl)pyridine 1-oxide], for which the IC50 was below 0.1 nM.

Consider `CN(C)C(=O)c1cccc(S(=O)(=O)N2CCCC[C@H]2C(=O)O[C@@H](Cc2c(Cl)c[n+]([O-])cc2Cl)c2ccc(OC(F)F)c(OCC3CC3)c2)c1` [Compound 82, 3,5-dichloro-4-((S)-2-(3-(cyclopropylmethoxy)-4-(difluoromethoxy)phenyl)-2-((S)-1-(3-(dimethylcarbamoyl)phenylsulfonyl)piperidine-2-carbonyloxy)ethyl)pyridine 1-oxide], for which the IC50 is below 0.1 nM.

Consider `Cc1cc(F)ccc1S(=O)(=O)N1CCSC1C(=O)O[C@@H](Cc1c(Cl)c[n+]([O-])cc1Cl)c1ccc(OC(F)F)c(OCC2CC2)c1` (stereo partly drawn) [Compound 69, 3,5-dichloro-4-((2S)-2-(3-(cyclopropylmethoxy)-4-(difluoromethoxy)phenyl)-2-(3-(4-fluoro-2-methylphenylsulfonyl)thiazolidine-2-carbonyloxy)ethyl)pyridine 1-oxide], for which the concentration for half-maximal inhibition (IC50) was 0.1 to 1 nM.

For `COC(=O)c1ccc(S(=O)(=O)N2CCSC2C(=O)O[C@@H](Cc2c(Cl)c[n+]([O-])cc2Cl)c2ccc(OC(F)F)c(OCC3CC3)c2)s1` (stereo partly drawn) [Compound 87, 3,5-dichloro-4-((2S)-2-(3-(cyclopropylmethoxy)-4-(difluoromethoxy)phenyl)-2-(3-(5-(methoxycarbonyl)thiophen-2-ylsulfonyl)thiazolidine-2-carbonyloxy)ethyl)pyridine 1-oxide], the 50% inhibitory concentration (IC50) fell in the range of 0.1 to 1 nM.

Take `COc1ccc(S(=O)(=O)N2CCSC2C(=O)O[C@@H](Cc2c(Cl)c[n+]([O-])cc2Cl)c2ccc(OC(F)F)c(OCC3CC3)c2)cc1N` (stereo partly drawn) [Compound 137, 4-((2S)-2-(3-(3-amino-4-methoxyphenylsulfonyl)thiazolidine-2-carbonyloxy)-2-(3-(cyclopropylmethoxy)-4-(difluoromethoxy)phenyl)ethyl)-3,5-dichloropyridine 1-oxide]: the IC50 fell in the range of 0.1 to 1 nM.

Turning to `COc1cc(C)ccc1S(=O)(=O)N1CCS[C@H]1C(=O)O[C@@H](Cc1c(Cl)c[n+]([O-])cc1Cl)c1ccc(OC(F)F)c(OCC2CC2)c1` [Compound 106, 3,5-dichloro-4-((S)-2-(3-(cyclopropylmethoxy)-4-(difluoromethoxy)phenyl)-2-((S)-3-(2-methoxy-4-methylphenylsulfonyl)thiazolidine-2-carbonyloxy)ethyl)pyridine 1-oxide], the IC50 is below 0.1 nM.

On to `O=C(O[C@@H](Cc1c(Cl)c[n+]([O-])cc1Cl)c1ccc(OC(F)F)c(OCC2CC2)c1)C1SCCN1S(=O)(=O)c1cccc(F)c1` (stereo partly drawn) [Compound 60, 3,5-dichloro-4-((2S)-2-(3-(cyclopropylmethoxy)-4-(difluoromethoxy)phenyl)-2-(3-(3-fluorophenylsulfonyl)thiazolidine-2-carbonyloxy)ethyl)pyridine 1-oxide], for which the IC50 was in the range of 0.1 to 1 nM.

On to `Nc1ccc(C(=O)N2CCSC2C(=O)O[C@@H](Cc2c(Cl)c[n+]([O-])cc2Cl)c2ccc(OC(F)F)c(OCC3CC3)c2)cc1` (stereo partly drawn) [Compound 26, 4-((2S)-2-(3-(4-aminobenzoyl)thiazolidine-2-carbonyloxy)-2-(3-(cyclopropylmethoxy)-4-(difluoromethoxy)phenyl)ethyl)-3,5-dichloropyridine 1-oxide], for which the IC50 was 0.1 to 1 nM.

`CN(C)C(=O)c1cccc(S(=O)(=O)N2CC(C(=O)O[C@@H](Cc3c(Cl)c[n+]([O-])cc3Cl)c3ccc(OC(F)F)c(OCC4CC4)c3)C2)c1` [Compound 281, (S)-3,5-dichloro-4-(2-(3-(cyclopropylmethoxy)-4-(difluoromethoxy)phenyl)-2-(1-(3-(dimethylcarbamoyl)phenylsulfonyl)azetidine-3-carbonyloxy)ethyl)pyridine 1-oxide]: the IC50 was in the range of 0.1 to 1 nM.

As for `COc1ccc(S(=O)(=O)N2CCS[C@H]2C(=O)O[C@@H](Cc2c(Cl)c[n+]([O-])cc2Cl)c2ccc(OC(F)F)c(OCC3CC3)c2)cc1OC` [Compound 93, 3,5-dichloro-4-((S)-2-(3-(cyclopropylmethoxy)-4-(difluoromethoxy)phenyl)-2-((S)-3-(3,4-dimethoxyphenylsulfonyl)thiazolidine-2-carbonyloxy)ethyl)pyridine 1-oxide], the half-maximal inhibitory concentration (IC50) was below 0.1 nM.

In the case of `CS(=O)(=O)N(CCN1CCOCC1)c1ccc(S(=O)(=O)N2CCSC2C(=O)O[C@@H](Cc2c(Cl)c[n+]([O-])cc2Cl)c2ccc(OC(F)F)c(OCC3CC3)c2)cc1` (stereo partly drawn) [Compound 143, 3,5-dichloro-4-((2S)-2-(3-(cyclopropylmethoxy)-4-(difluoromethoxy)phenyl)-2-(3-(4-(N-(2-morpholinoethyl)methylsulfonamido)phenylsulfonyl)thiazolidine-2-carbonyloxy)ethyl)pyridine 1-oxide formate], the IC50 fell in the range of 0.1 to 1 nM.

Regarding `CN1CCOc2ccc(S(=O)(=O)N3CCC[C@H]3C(=O)O[C@@H](Cc3c(Cl)c[n+]([O-])cc3Cl)c3ccc(OC(F)F)c(OCC4CC4)c3)cc21` [Compound 250, 3,5-dichloro-4-((S)-2-(3-(cyclopropylmethoxy)-4-(difluoromethoxy)phenyl)-2-((S)-1-(4-methyl-3,4-dihydro-2H-benzo[b][1,4]oxazin-6-ylsulfonyl)pyrrolidine-2-carbonyloxy)ethyl)pyridine 1-oxide], the concentration for half-maximal inhibition (IC50) was below 0.1 nM.

`O=C(CN1CCSC1C(=O)O[C@@H](Cc1c(Cl)c[n+]([O-])cc1Cl)c1ccc(OC(F)F)c(OCC2CC2)c1)c1cccs1` (stereo partly drawn) [Compound 144, 3,5-dichloro-4-((2S)-2-(3-(cyclopropylmethoxy)-4-(difluoromethoxy)phenyl)-2-(3-(2-oxo-2-(thiophen-2-yl)ethyl)thiazolidine-2-carbonyloxy)ethyl)pyridine 1-oxide]: the IC50 was in the range of 0.1 to 1 nM.

With `N#Cc1ccccc1S(=O)(=O)N1CCS[C@H]1C(=O)O[C@@H](Cc1c(Cl)c[n+]([O-])cc1Cl)c1ccc(OC(F)F)c(OCC2CC2)c1` [Compound 200, 3,5-dichloro-4-((S)-2-((S)-3-(2-cyanophenylsulfonyl)thiazolidine-2-carbonyloxy)-2-(3-(cyclopropylmethoxy)-4-(difluoromethoxy)phenyl)ethyl)pyridine 1-oxide], the IC50 lay within 0.1 to 1 nM.

For `COc1ccc(C(=O)N2CCC[C@H]2C(=O)O[C@@H](Cc2c(Cl)c[n+]([O-])cc2Cl)c2ccc(OC(F)F)c(OCC3CC3)c2)cc1OS(C)(=O)=O` [Compound 30, 3,5-dichloro-4-((S)-2-(3-(cyclopropylmethoxy)-4-(difluoromethoxy)phenyl)-2-((S)-1-(4-methoxy-3-(methylsulfonyloxy)benzoyl)pyrrolidine-2-carbonyloxy)ethyl)pyridine-1-oxide], the IC50 lay within 1 to 10 nM.
